One assay relates to AICARFT. As to the kind of experiment: Pharmacodynamic response in beagle dogs (plasma AICAr). It is filed as in vivo, beagle dog. The following applies: for Mean Plasma AICAr: beagle dogs, orally, time of collection post dose 8; for in vivo inhibition of AICARFT (in words): dogs, summary of Table 20. The procedure:
The in vivo effects of AICARFT inhibition on the circulating concentration of AICAr is determined by liquid chromatography-mass spectrometry (LC-MS). Standard curves containing AICAr at concentrations of 1 ng/mL-2000 ng/mL are prepared in 40 mM ammonium acetate, pH 4. Plasma samples (75 μL) or standards (75 μL) are combined with 300 μL of an internal standard solution containing 13C5-AICAr (20 ng/mL) and formic acid (1%) in ACN. The samples are vortex mixed for 5 minutes and passed through a Phenomenex Phree 96-well phospholipid removal SPE plate. The eluents are collected in a 96-well plate and dried under heated nitrogen at 50° C. Each sample is reconstituted in 50 μL of 40 mM ammonium acetate, pH 4. The plates are sealed and vortexed for 5 minutes prior to analysis. The LC-MS method utilized a Shimadzu Prominence 20A HPLC system connected to an AB Sciex 5500™ or an AB Sciex 6500™ triple quadrupole mass spectrometer running Analyst® software. Extracted samples are separated using two Thermo Hypercarb™ Javelin guard columns (2.1×20 mm, 5 μm) connected in series with an injection volume of 15 μL and a flow rate of 1 mL/minute. Mobile phase A is a 95:5 mixture of 50 mM ammonium formate, pH 4 and ACN. Mobile phase B is a 70:30 mixture of ACN and MeOH spiked with 0.3% formic acid and 2% concentrated ammonium hydroxide solution (v/v). For mouse plasma samples the following gradient is used: 0 minutes, 0% B; 0.25 minutes, 0% B; 2.00 minutes, 25% B; 2.01 minutes, 95% B; 3.50 minutes, 95% B; 3.51 minutes, 0% B; 4.50 minutes, stop. For dog plasma samples the following gradient is used to remove endogenous interferences: 0 minutes, 0% B; 0.25 minutes, 0% B; 5.99 minutes, 20% B; 6.00 minutes, 95% B; 8.00 minutes, 95% B; 8.01 minutes, 0% B; 10.00 minutes, stop. The mass spectrometer is operated in positive ion TurboIonSpray® multiple reaction monitoring mode with a source temperature of 700° C. The precursor and fragment ions for each analyte are: AICAr (259→127) and 13C5-AICAr (264→127). Calibration curves are constructed by plotting analyte concentrations vs. analyte/internal standard peak area ratios and performing a linear fit of the data using a 1/concentration weighting with AB Sciex MultiQuant™ 2.1 software.
Beagle dogs, non-human primates and human are low serum folate species, whereas rodents are high serum folate (C P Leamon et al. (2008) JPET 327:918-925). The pharmacodynamics response in dogs treated with an AICARFT inhibitor will be more representative of the expected pharmacodynamics response in patients treated with an AICARFT inhibitor.
Animals are returned to the colony for re-use after completion of the experiment.

The next assay concerns panel of cell lines. Description: In vitro proliferation assay, cell line panel (CellTiter-Glo). The format is cell-based. The following applies: standard media conditions; summary of Table 17. The procedure: (§1) Cells are grown using the cell banks recommended culture conditions on the date of sample acquisition. Prepare complete medium adding appropriate horse serum (ex. Invitrogen, Cat. No. 16050130) or FBS (ex. Invitrogen, Cat. No. 10099-141 or Hyclone Cat. No. CH30160.03) and additives.
(§2) For attached cell lines, remove and discard culture medium using a vacuum pump. […] Add 3.0 mL of Trypsin-EDTA solution to flask and observe cells under an inverted microscope until cell layer is dispersed. Add 8.0 mL of complete growth medium and aspirate cells by gently pipetting.
(§3) For suspension cell lines, transfer the cell suspension to a centrifuge tube and centrifuge at 800-1000 rpm for 3-5 minutes. Discard the supernatant using a vacuum pump. Add the appropriate volume of complete medium. Suspend the cell pellet by gently pipetting. Count the cell numbers and adjust cells to the appropriate seeding density. […]
(§4) Determine the concentrations to be tested and dilute the compounds to 200×final concentration in low folate media. […] Incubate plates at 37° C. for approximately 2 doubling times as determined for each cell line. […] Paste the clear bottom with white back seal and record luminescence with Flexstation3 (Molecular Devices). The settings should be: Luminescence, integration time 500 ms. […]

Assay [1] relates to colorectal carcinoma HCT-116. Description: In vitro proliferation assay, HCT-116. It is filed as cell-based. The following applies: Homo sapiens; HCT-116, standard media conditions. As to the method:
as §1, §2, §3, §4

Assay [2] concerns large cell lung cancer NCI-H460. Description: In vitro proliferation assay, NCI-H460. The format is cell-based. Conditions: Homo sapiens; NCI-H460, standard media conditions. As to the method: as §1, §2, §3, §4

The structures appear in SMILES notation.

In the case of `O=c1[nH]ccc2cc(F)c(NS(=O)(=O)c3ccc(N4C[C@@H](O)[C@@H](F)C4)s3)cc12` (single isomer, unassigned) [Example 33], the “Mean Plasma AICAr” value with AICARFT (10 mg/kg QD) turned out to be 98 nM; with AICARFT (30 mg/kg QD), 213 nM; in the assay with AICARFT (100 mg/kg QD) it was 726 nM; in the assay with AICARFT (300 mg/kg QD), 1150 nM. Further, the “in vivo inhibition of AICARFT (in words)” value in the assay with AICARFT was “demonstrate in vivo inhibition of AICARFT”.

On to `O=c1[nH]ccc2cc(F)c(NS(=O)(=O)c3ccc(N4C[C@@H](O)C(F)(F)C4)s3)cc12` [Example 41, 5-[(4R)-3,3-difluoro-4-hydroxypyrrolidin-1-yl]-N-(6-fluoro-1-oxo-1,2-dihydroisoquinolin-7-yl)thiophene-2-sulfonamide], for which the “inhibition of proliferation of cancer cells (in words)” value in the assay with panel of cell lines is “inhibit proliferation of cancer cells”. For the same compound, the IC50 turned out to be 10.8 µM in assay [1] and 1.88 µM in assay [2]. Moreover, the “Mean Plasma AICAr” value in the assay with AICARFT (10 mg/kg QD) is reported as 158 nM; in the assay with AICARFT (30 mg/kg QD), 362 nM; in the assay on AICARFT (100 mg/kg QD), 1534 nM; with AICARFT (300 mg/kg QD) it was 1373 nM. Further, in the assay on AICARFT, the “in vivo inhibition of AICARFT (in words)” value is on record as “demonstrate in vivo inhibition of AICARFT”.

Turning to `O=c1[nH]ccc2cc(F)c(NS(=O)(=O)c3ccc(N4CC[C@@H](O)C4)s3)cc12` [Example 1, N-(6-Fluoro-1-oxo-1,2-dihydroisoquinolin-7-yl)-5-[(3R)-3-hydroxypyrrolidin-1-yl]thiophene-2-sulfonamide], in the assay on panel of cell lines, the “inhibition of proliferation of cancer cells (in words)” value is reported as “inhibit proliferation of cancer cells”. In addition, the half-inhibitory concentration (IC50) in assay [1] turned out to be 8.1 µM; in assay [2], 0.61 µM. Moreover, the “Mean Plasma AICAr” value was 138 nM with AICARFT (10 mg/kg QD), 254 nM in the assay on AICARFT (30 mg/kg QD), 652 nM with AICARFT (100 mg/kg QD) and 931 nM with AICARFT (300 mg/kg QD). Moreover, in the assay with AICARFT, the “in vivo inhibition of AICARFT (in words)” value is on record as “demonstrate in vivo inhibition of AICARFT”.

The values are drawn from patent publication US9776992B2, “1-oxo-1,2-dihydroisoquinolin-7-yl-(5-substituted-thiophen-2-yl)-sulfonamide compounds, formulations containing those compounds, and their use as AICARFT inhibitors in the treatment of cancers” (Eli Lilly and Company, priority 2014, dated 2017).
